In brackets after ≈: the same amount, converted by molar mass. Where two headings read alike, the source gives them in different places.
Tests used:
[1] = test system: S. typhimurium GC 2172; test: MIC, broth microdilution; conditions: Salmonella enterica, TYPHIMURIUM
[2] = test system: E. coli; test: Range of MIC for E. coli strains; conditions: Escherichia coli
[3] = test system: Staph.; test: Range of MIC for Staph. strains, including MRSA; conditions: Staphylococcus aureus, MRSA
[4] = test system: E. coli GC 2203; test: MIC, broth microdilution; conditions: Escherichia coli
[5] = test system: E. faecalis GC 4555; test: MIC, broth microdilution; conditions: Enterococcus faecalis
[6] = test system: E. coli GC 6465; test: MIC, broth microdilution; conditions: Escherichia coli
[7] = test system: S. aureus GC 4536; test: MIC, broth microdilution; conditions: Staphylococcus aureus
[8] = test system: S. pneumoniae* GC 4465; test: MIC, broth microdilution; conditions: Streptococcus pneumoniae
[9] = test system: E. coli GC 2272; test: MIC, broth microdilution; conditions: Escherichia coli
[10] = test system: S. aureus GC 6467; test: MIC, broth microdilution; conditions: Staphylococcus aureus
Experimental: (§1) Antimicrobial susceptibility testing. The in vitro activities of the antibiotics are determined by the broth microdilution method as recommended by the National Committee for Clinical Laboratory Standards (NCCLS) (1). Mueller-Hinton II broth (MHBII)(BBL Cockeysville, Md.) is the medium employed in the testing procedures. Microtiter plates containing serial dilutions of each antimicrobial agent are inoculated with each organism to yield the appropriate density (10^5 CFU/ml) in a 100 μl final volume. The plates are incubated for 18-22 hours at 35° C. in ambient air.
(§2) Representative compounds were first incubated in mouse serum for an hour prior to the in vitro testing against a panel of selected gram-positive and gram-negative bacteria strains. All compounds were also pre-incubated in water for an hour prior to testing as control.

[11] = test system: S. aureus GC 6466; test: MIC, broth microdilution; conditions: Staphylococcus aureus
[12] = test system: E. coli GC 4560; test: MIC, broth microdilution; conditions: Escherichia coli
[13] = test system: S. aureus GC 6469; test: MIC, broth microdilution; conditions: Staphylococcus aureus
[14] = test system: E. coli GC 2232; test: MIC, broth microdilution; conditions: Escherichia coli
[15] = test system: E. faecalis GC 2265; test: MIC, broth microdilution; conditions: Enterococcus faecalis
Experimental: as §1, §2

[16] = test system: E. faecalis GC 2267; test: MIC, broth microdilution; conditions: Enterococcus faecalis
[17] = test system: E. coli GC 2231; test: MIC, broth microdilution; conditions: Escherichia coli
[18] = test system: E. faecium GC 2243; test: MIC, broth microdilution; conditions: Enterococcus faecium
[19] = test system: E. coli GC 3226; test: MIC, broth microdilution; conditions: Escherichia coli
[20] = test system: S. agalactiae GC 4564; test: MIC, broth microdilution; conditions: Streptococcus agalactiae
[21] = read-out: MINIMAL INHIBITORY CONCENTRATION MIC, pre-incubated in Mouse Serum
[22] = read-out: MINIMAL INHIBITORY CONCENTRATION MIC, pre-incubated in Water

Which results are given for `CCCN(CC(=O)Nc1cc(N(C)C)c2c(c1O)C(=O)C1=C(O)[C@]3(O)C(=O)C(C(N)=O)=C(O)[C@@H](N(C)C)[C@@H]3C[C@@H]1C2)C(=O)OCOC(=O)c1ccc(-c2ccccc2)cc1` [Example 24, ({[(2-{[(5aR,6aS,7S,10aS)-9-(aminocarbonyl)-4,7-bis(dimethylamino)-1,8,10a,11-tetrahydroxy-10,12-dioxo-5,5a,6,6a,7,10,10a,12-octahydrotetracen-2-yl]amino}-2-oxoethyl)(propyl)amino]carbonyl}oxy)methyl 1,1′-biphenyl-4-carboxylate]?
MIC [1, 21]: 8 µg/mL (≈ 9.69 µM); MIC [1, 22]: > 64 µg/mL; MIC ([2]; 20 h, read-out: Range of MIC, E. coli (Mouse Serum)): 0.5 to 2 µg/mL (≈ 0.605 to 2.42 µM); MIC ([2]; read-out: Range of MIC, E. coli (Water)): > 64 µg/mL; MIC ([2]; read-out: Range of MIC, E. coli (mouse serum)): 0.5 to 2 µg/mL (≈ 0.605 to 2.42 µM); MIC ([2]; read-out: Range of MIC, E. coli (water)): > 64 µg/mL; MIC ([3]; read-out: Range of MIC, Staph (Mouse Serum)): 0.25 to 4 µg/mL (≈ 0.303 to 4.84 µM); MIC ([3]; read-out: Range of MIC, Staph. (mouse serum)): 0.25 to 4 µg/mL (≈ 0.303 to 4.84 µM); MIC ([4]; GC2203, read-out: MINIMAL INHIBITORY CONCENTRATION MIC, pre-incubated in Mouse Serum): 0.5 µg/mL (≈ 0.605 µM); MIC ([4]; GC2203, read-out: MINIMAL INHIBITORY CONCENTRATION MIC, pre-incubated in Water): > 64 µg/mL; MIC ([5]; GC4555, read-out: MINIMAL INHIBITORY CONCENTRATION MIC, pre-incubated in Mouse Serum): 1 µg/mL (≈ 1.21 µM); MIC ([5]; GC4555, read-out: MINIMAL INHIBITORY CONCENTRATION MIC, pre-incubated in Water): 64 µg/mL (≈ 77.5 µM); MIC ([6]; GC6465, read-out: MINIMAL INHIBITORY CONCENTRATION MIC, pre-incubated in Mouse Serum): 8 µg/mL (≈ 9.69 µM); MIC ([6]; GC6465, read-out: MINIMAL INHIBITORY CONCENTRATION MIC, pre-incubated in Water): > 64 µg/mL; MIC ([7]; GC4536, read-out: MINIMAL INHIBITORY CONCENTRATION MIC, pre-incubated in Mouse Serum): 1 µg/mL (≈ 1.21 µM); MIC ([7]; GC4536, read-out: MINIMAL INHIBITORY CONCENTRATION MIC, pre-incubated in Water): 4 µg/mL (≈ 4.84 µM); MIC [8, 21]: < 0.06 µg/mL; MIC [8, 22]: < 0.06 µg/mL; MIC ([9]; GC2272, read-out: MINIMAL INHIBITORY CONCENTRATION MIC, pre-incubated in Mouse Serum): 1 µg/mL (≈ 1.21 µM); MIC ([9]; GC2272, read-out: MINIMAL INHIBITORY CONCENTRATION MIC, pre-incubated in Water): > 64 µg/mL; MIC ([10]; GC6467, read-out: MINIMAL INHIBITORY CONCENTRATION MIC, pre-incubated in Mouse Serum): 4 µg/mL (≈ 4.84 µM); MIC ([10]; GC6467, read-out: MINIMAL INHIBITORY CONCENTRATION MIC, pre-incubated in Water): > 64 µg/mL; MIC ([11]; GC6466, read-out: MINIMAL INHIBITORY CONCENTRATION MIC, pre-incubated in Mouse Serum): 0.25 µg/mL (≈ 0.303 µM); MIC ([11]; GC6466, read-out: MINIMAL INHIBITORY CONCENTRATION MIC, pre-incubated in Water): 0.5 µg/mL (≈ 0.605 µM); MIC ([12]; GC4560, read-out: MINIMAL INHIBITORY CONCENTRATION MIC, pre-incubated in Mouse Serum): 0.25 µg/mL (≈ 0.303 µM); MIC ([12]; GC4560, read-out: MINIMAL INHIBITORY CONCENTRATION MIC, pre-incubated in Water): 64 µg/mL (≈ 77.5 µM); MIC ([13]; GC6469, read-out: MINIMAL INHIBITORY CONCENTRATION MIC, pre-incubated in Mouse Serum): 4 µg/mL (≈ 4.84 µM); MIC ([13]; GC6469, read-out: MINIMAL INHIBITORY CONCENTRATION MIC, pre-incubated in Water): > 64 µg/mL; MIC ([14]; GC2232, read-out: MINIMAL INHIBITORY CONCENTRATION MIC, pre-incubated in Mouse Serum): 0.5 µg/mL (≈ 0.605 µM); MIC ([14]; GC2232, read-out: MINIMAL INHIBITORY CONCENTRATION MIC, pre-incubated in Water): > 64 µg/mL; MIC ([15]; GC2265, read-out: MINIMAL INHIBITORY CONCENTRATION MIC, pre-incubated in Mouse Serum): 2 µg/mL (≈ 2.42 µM); MIC ([15]; GC2265, read-out: MINIMAL INHIBITORY CONCENTRATION MIC, pre-incubated in Water): 32 µg/mL (≈ 38.7 µM); MIC ([16]; GC2267, read-out: MINIMAL INHIBITORY CONCENTRATION MIC, pre-incubated in Mouse Serum): 4 µg/mL (≈ 4.84 µM); MIC ([16]; GC2267, read-out: MINIMAL INHIBITORY CONCENTRATION MIC, pre-incubated in Water): 64 µg/mL (≈ 77.5 µM); MIC ([17]; GC2231, read-out: MINIMAL INHIBITORY CONCENTRATION MIC, pre-incubated in Mouse Serum): 2 µg/mL (≈ 2.42 µM); MIC ([17]; GC2231, read-out: MINIMAL INHIBITORY CONCENTRATION MIC, pre-incubated in Water): > 64 µg/mL; MIC ([18]; GC2243, read-out: MINIMAL INHIBITORY CONCENTRATION MIC, pre-incubated in Mouse Serum): 0.5 µg/mL (≈ 0.605 µM); MIC ([18]; GC2243, read-out: MINIMAL INHIBITORY CONCENTRATION MIC, pre-incubated in Water): 2 µg/mL (≈ 2.42 µM); MIC ([19]; GC3226, read-out: MINIMAL INHIBITORY CONCENTRATION MIC, pre-incubated in Mouse Serum): 1 µg/mL (≈ 1.21 µM); MIC ([19]; GC3226, read-out: MINIMAL INHIBITORY CONCENTRATION MIC, pre-incubated in Water): > 64 µg/mL; MIC ([20]; GC4564, read-out: MINIMAL INHIBITORY CONCENTRATION MIC, pre-incubated in Mouse Serum): 0.5 µg/mL (≈ 0.605 µM); MIC ([20]; GC4564, read-out: MINIMAL INHIBITORY CONCENTRATION MIC, pre-incubated in Water): 8 µg/mL (≈ 9.69 µM)

From patent US20070049564A1 (Wyeth, priority 2005, published 2007)
